According to patent publication US20060228419A1, “Solvent-free process for preparation of hydrophilic dispersions of nanoparticles of inclusion complexes” (SoluBest Ltd., priority 2005, published 2006):

Molecular target: T1, hyaluronidase (Bos taurus, UniProt Q2YDK3)
T1 construct: purchased Sigma H 3506; host or cells: bovine testes (natural source)
T1 sequence (Q2YDK3 36-553): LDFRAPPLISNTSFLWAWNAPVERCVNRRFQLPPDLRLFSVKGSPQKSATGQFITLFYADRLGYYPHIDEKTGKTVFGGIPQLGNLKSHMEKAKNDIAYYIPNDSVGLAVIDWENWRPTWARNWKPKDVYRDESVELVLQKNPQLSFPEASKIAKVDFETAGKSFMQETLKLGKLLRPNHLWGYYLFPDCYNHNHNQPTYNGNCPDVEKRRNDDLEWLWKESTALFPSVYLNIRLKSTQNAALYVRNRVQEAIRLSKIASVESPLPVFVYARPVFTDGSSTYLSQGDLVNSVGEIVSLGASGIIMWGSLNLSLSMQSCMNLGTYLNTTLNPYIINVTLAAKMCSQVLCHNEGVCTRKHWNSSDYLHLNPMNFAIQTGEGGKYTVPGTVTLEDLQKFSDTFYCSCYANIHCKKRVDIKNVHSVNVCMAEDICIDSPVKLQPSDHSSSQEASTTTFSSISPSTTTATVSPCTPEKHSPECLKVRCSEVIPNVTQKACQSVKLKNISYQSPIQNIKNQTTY
Assay: Stability in the presence of hyaluronidase (decrease of viscosity)
Format: in vitro ADME, bovine
Experimental: The stability of Solu-NaHA in the presence of the enzyme specific for hyaluronic acid, hyaluronidase (Sigma, H 3506, Hyaluronidase lyophilized (EC 3.2.1.35) Type I-S, from bovine testes, 608 U/mg solid) was measured by the decrease of the viscosity in time in comparison to blank. The degree of stability (protection against action of hyaluronidase) is defined as a decrease in the viscosity of the NaHA solution upon addition of the enzyme (dose of enzyme—10 U/ml). The control used was 0.1% solution of NaHA without the wrapping polymer (blank). Samples were maintained on a water bath at temperature 37° C. during 5 hrs. Sample made by Visco Star Plus. The decrease in viscosity was estimated in percentage to its initial value. The results in FIG. 5 show the stability of Solu-NaHA prepared with polymer A (NaHA with HPS) or with Polymer B (NaHA with B-790) against the action of hyaluronidase, established as 84-100% vs control 58-63%.
The stability of NaHA in the Solu-NaHA in the presence of hyaluronidase was measured by the decrease of the viscosity over time in comparison to blank. The stability of Solu-NaHA against the action of hyaluronidase was 70-90% vs 40-45% in blank (0.5% solution of NaHA).
The degree of stability of NaHA was measured as described in Example 7 above. The control used was 0.5% solution of NaHA without any polymer (blank). Samples were maintained on a water bath at temperature 37° C. during 5 hrs. Measurement of viscosity was made by Visco Star Plus. Decrease in viscosity is estimated in percentage relative to its initial value. It is established, that protection of Solu-NaHA with polymer A (HPS) against action of hyaluronidase gives a viscosity of 67-70% vs the control protection of 20-27%.

Substance | viscosity under enzyme activity, percentage relative to initial value (0.5% NaHA, 37° C., 5 hrs) | stability against the action of hyaluronidase (0.5% NaHA, viscosity over time versus blank (FIG. 6)) | stability against the action of hyaluronidase (0.1% NaHA, enzyme 10 U/ml, 37° C., up to 5 hrs, viscosity in percentage to initial value)
sodium hyaluronate [0.5% solution of NaHA] | 20-27% | 40-45% | –
sodium hyaluronate [0.1% solution of NaHA] | – | – | 58-63%
